{
  "source": "patent US12121514B2",
  "about": "“Nonselective metabotropic glutamate receptor activators for treatment of attention deficit disorder and 22Q syndrome” (THE CHILDREN'S HOSPITAL OF PHILADELPHIA, priority 2015, dated 2024)",
  "tested_on": "adolescent subjects with ADHD and at least one genetic alteration in an mGluR network gene",
  "assay": "Vanderbilt ADHD score (items 1-18, parent), Phase Ib trial of NFC-1",
  "assay_type": "in vivo, human",
  "conditions": "relative to pre-study (enrollment) baseline",
  "excerpt": "The Vanderbilt Rating Scale is a measure that can be completed by parents or teachers (separate forms, see Vanderbilt Rating Scale Parents and Vanderbilt Rating Scale Teachers). The Vanderbilt scale rates the child's behavior on items such as attention, finishing tasks, hyperactivity, difficulty waiting, and measures of conduct or oppositional defiant disorders—as well as measures of overall school performance and interactions with others. The first 18 items on the Vanderbilt scale correspond to those of the ADHD Rating Scale IV above while the Vanderbilt scale also includes items 19-47 related to other mental disorders including ODD (items 19-26), conduct disorder (items 27-40), anxiety (items 41, 42, and 47), and depression (items 43-46). Each of the behavioral assessment items on the Vanderbilt Scale are rated 0, 1, 2, or 3, with 0=never occurring; 1=occasionally, 2=often, and 3=very often. Thus, the ADHD Rating Scale IV, ADHD Rating Scale V, and items 1-18 of the Vanderbilt Rating Scale are equivalent scales, while additional items on the Vanderbilt Scale assess co-morbid phenotypes and disorders.\nEach of the items are rated on a scale of 0, 1, 2, or 3, with 0=never; 1=occasionally, 2=often, and 3=very often. A total score of 0 to 54 is computed based on the answers to the 18 questions.\nAs used herein an “ADHD rating scale score,” “ADHD score” or “Vanderbilt ADHD score” are used interchangeably to refer to the computed score of the 18 items of the ADHD Rating Scale IV or V or the first 18 items of the Vanderbilt Rating Scale in any of their associated versions, e.g., for parent, teacher, or clinician to complete, and for a pediatric subject or adult subject. Clinical trials may assess the impact of drug or placebo on the ADHD score or Vanderbilt ADHD score (i.e. the score of 0 to 54 based on the first 18 items in the ADHD or Vanderbilt rating scale). In some cases, results of a clinical trial population may be analyzed by comparing the average score or a percentage change in score over time of administration of drug.\nAn open-label Phase Ib clinical trial was initiated to investigate the safety, pharmacokinetics and efficacy of NFC-1 (fasoracetam monohydrate) in adolescent subjects between the ages of 12 and 17 previously diagnosed with ADHD who also had at least one genetic alteration in an mGluR network gene.\nDose-escalation phase of the trial followed the PK and initial safety assessment and ran over a 5-week period. During week 1, all subjects were administered placebo capsules twice daily. After one week of placebo treatment, patients were started on 50 mg bid NFC-1 for 1 week. If safety and responsiveness data from prior dose level of fasoracetam indicated it was appropriate, subjects were then escalated to the next higher dose (100, 200, or 400 mg). […] Of the 30 trial subjects, 3 received a maximum dose of 100 mg, 9 received a maximum dose of 200 mg, and the remaining 18 received a maximum dose of 400 mg.\nAll efficacy assessments, except actigraphy, were made at study enrollment (“enrollment baseline”) and again, including actigraphy, once-per-week for the placebo week (“week 1” or “placebo baseline”) and at each of the 4 weeks of NFC-1 treatment. These efficacy measures include items 1-18 of the Vanderbilt scale assessing symptoms related to inattentiveness and hyperactivity-impulsiveness as well as additional questions 19-47 of the Vanderbilt scale assessing other behavioral symptoms (conducted by parent), actigraphy for quantitative measurement of activity, Quotient® ADHD test for objective measurement of micro-motion and shifts in attention state, PERMP-Math test, and CGI-I and CGI-S for assessment of global functioning. […]",
  "key": {"[1]": {"conditions": "Tier 1, Week 5, up to 400 mg bid"}, "[2]": {"conditions": "Tier 2, Week 3, up to 100 mg bid"}, "[3]": {"conditions": "Tier 2, Week 4, up to 200 mg bid"}, "[4]": {"conditions": "Tier 2, Week 5, up to 400 mg bid"}, "[5]": {"conditions": "Tier 3, Week 3, up to 100 mg bid"}, "[6]": {"conditions": "Tier 3, Week 4, up to 200 mg bid"}, "[7]": {"conditions": "Tier 3, Week 5, up to 400 mg bid"}},
  "data": [
    {"compound": "O=C1CC[C@H](C(=O)N2CCCCC2)N1", "note": "[NFC-1, fasoracetam monohydrate]", "values": [
      {"measurement": "Percent of subjects with improvement in Vanderbilt ADHD score (at least 25% decrease)", "setting": "Tier 1, Week 4, up to 200 mg bid", "value": 88, "unit": "%"},
      {"measurement": "Percent of subjects completing the dose escalation to 400 mg bid that show improvement in Vanderbilt ADHD scores (at least 25% decrease)", "setting": "Tier 1, Week 5, 400 mg bid", "value": 89, "unit": "%"},
      {"measurement": "Percent of subjects completing the dose escalation to 400 mg bid that show robust improvement in Vanderbilt ADHD scores (at least 40% decrease)", "setting": "Tier 1, Week 5, 400 mg bid", "value": 67, "unit": "%"},
      {"measurement": "Percent of subjects demonstrating robust improvement in Vanderbilt ADHD score (at least 40% decrease)", "setting": "[1]", "value": 63, "unit": "%"},
      {"measurement": "Percent of subjects with improvement in Vanderbilt ADHD score (at least 25% decrease)", "setting": "[1]", "value": 75, "unit": "%"},
      {"measurement": "Percent of subjects completing the dose escalation to 400 mg bid that show improvement in Vanderbilt ADHD scores (at least 25% decrease)", "setting": "Tier 2, Week 2, 50 mg bid", "value": 20, "unit": "%"},
      {"measurement": "Percent of subjects completing the dose escalation to 400 mg bid that show robust improvement in Vanderbilt ADHD scores (at least 40% decrease)", "setting": "Tier 2, Week 2, 50 mg bid", "value": 20, "unit": "%"},
      {"measurement": "Percent of subjects demonstrating robust improvement in Vanderbilt ADHD score (at least 40% decrease)", "setting": "Tier 2, Week 2, 50 mg bid", "value": 14, "unit": "%"},
      {"measurement": "Percent of subjects with improvement in Vanderbilt ADHD score (at least 25% decrease)", "setting": "Tier 2, Week 2, 50 mg bid", "value": 29, "unit": "%"},
      {"measurement": "Percent of subjects completing the dose escalation to 400 mg bid that show improvement in Vanderbilt ADHD scores (at least 25% decrease)", "setting": "Tier 2, Week 3, 100 mg bid", "value": 20, "unit": "%"},
      {"measurement": "Percent of subjects completing the dose escalation to 400 mg bid that show robust improvement in Vanderbilt ADHD scores (at least 40% decrease)", "setting": "Tier 2, Week 3, 100 mg bid", "value": 0, "unit": "%"},
      {"measurement": "Percent of subjects demonstrating robust improvement in Vanderbilt ADHD score (at least 40% decrease)", "setting": "[2]", "value": 0, "unit": "%"},
      {"measurement": "Percent of subjects with improvement in Vanderbilt ADHD score (at least 25% decrease)", "setting": "[2]", "value": 14, "unit": "%"},
      {"measurement": "Percent of subjects completing the dose escalation to 400 mg bid that show improvement in Vanderbilt ADHD scores (at least 25% decrease)", "setting": "Tier 2, Week 4, 200 mg bid", "value": 20, "unit": "%"},
      {"measurement": "Percent of subjects completing the dose escalation to 400 mg bid that show robust improvement in Vanderbilt ADHD scores (at least 40% decrease)", "setting": "Tier 2, Week 4, 200 mg bid", "value": 20, "unit": "%"},
      {"measurement": "Percent of subjects demonstrating robust improvement in Vanderbilt ADHD score (at least 40% decrease)", "setting": "[3]", "value": 14, "unit": "%"},
      {"measurement": "Percent of subjects with improvement in Vanderbilt ADHD score (at least 25% decrease)", "setting": "[3]", "value": 43, "unit": "%"},
      {"measurement": "Percent of subjects completing the dose escalation to 400 mg bid that show improvement in Vanderbilt ADHD scores (at least 25% decrease)", "setting": "Tier 2, Week 5, 400 mg bid", "value": 80, "unit": "%"},
      {"measurement": "Percent of subjects completing the dose escalation to 400 mg bid that show robust improvement in Vanderbilt ADHD scores (at least 40% decrease)", "setting": "Tier 2, Week 5, 400 mg bid", "value": 20, "unit": "%"},
      {"measurement": "Percent of subjects demonstrating robust improvement in Vanderbilt ADHD score (at least 40% decrease)", "setting": "[4]", "value": 29, "unit": "%"},
      {"measurement": "Percent of subjects with improvement in Vanderbilt ADHD score (at least 25% decrease)", "setting": "[4]", "value": 86, "unit": "%"},
      {"measurement": "Percent of subjects completing the dose escalation to 400 mg bid that show improvement in Vanderbilt ADHD scores (at least 25% decrease)", "setting": "Tier 3, Week 2, 50 mg bid", "value": 33, "unit": "%"},
      {"measurement": "Percent of subjects completing the dose escalation to 400 mg bid that show robust improvement in Vanderbilt ADHD scores (at least 40% decrease)", "setting": "Tier 3, Week 2, 50 mg bid", "value": 33, "unit": "%"},
      {"measurement": "Percent of subjects demonstrating robust improvement in Vanderbilt ADHD score (at least 40% decrease)", "setting": "Tier 3, Week 2, 50 mg bid", "value": 50, "unit": "%"},
      {"measurement": "Percent of subjects with improvement in Vanderbilt ADHD score (at least 25% decrease)", "setting": "Tier 3, Week 2, 50 mg bid", "value": 50, "unit": "%"},
      {"measurement": "Percent of subjects completing the dose escalation to 400 mg bid that show improvement in Vanderbilt ADHD scores (at least 25% decrease)", "setting": "Tier 3, Week 3, 100 mg bid", "value": 0, "unit": "%"},
      {"measurement": "Percent of subjects completing the dose escalation to 400 mg bid that show robust improvement in Vanderbilt ADHD scores (at least 40% decrease)", "setting": "Tier 3, Week 3, 100 mg bid", "value": 0, "unit": "%"},
      {"measurement": "Percent of subjects demonstrating robust improvement in Vanderbilt ADHD score (at least 40% decrease)", "setting": "[5]", "value": 40, "unit": "%"},
      {"measurement": "Percent of subjects with improvement in Vanderbilt ADHD score (at least 25% decrease)", "setting": "[5]", "value": 40, "unit": "%"},
      {"measurement": "Percent of subjects completing the dose escalation to 400 mg bid that show improvement in Vanderbilt ADHD scores (at least 25% decrease)", "setting": "Tier 3, Week 4, 200 mg bid", "value": 0, "unit": "%"},
      {"measurement": "Percent of subjects completing the dose escalation to 400 mg bid that show robust improvement in Vanderbilt ADHD scores (at least 40% decrease)", "setting": "Tier 3, Week 4, 200 mg bid", "value": 0, "unit": "%"},
      {"measurement": "Percent of subjects demonstrating robust improvement in Vanderbilt ADHD score (at least 40% decrease)", "setting": "[6]", "value": 40, "unit": "%"},
      {"measurement": "Percent of subjects with improvement in Vanderbilt ADHD score (at least 25% decrease)", "setting": "[6]", "value": 40, "unit": "%"},
      {"measurement": "Percent of subjects completing the dose escalation to 400 mg bid that show improvement in Vanderbilt ADHD scores (at least 25% decrease)", "setting": "Tier 3, Week 5, 400 mg bid", "value": 67, "unit": "%"},
      {"measurement": "Percent of subjects completing the dose escalation to 400 mg bid that show robust improvement in Vanderbilt ADHD scores (at least 40% decrease)", "setting": "Tier 3, Week 5, 400 mg bid", "value": 33, "unit": "%"},
      {"measurement": "Percent of subjects demonstrating robust improvement in Vanderbilt ADHD score (at least 40% decrease)", "setting": "[7]", "value": 50, "unit": "%"},
      {"measurement": "Percent of subjects with improvement in Vanderbilt ADHD score (at least 25% decrease)", "setting": "[7]", "value": 75, "unit": "%"}
    ]}
  ]
}
